Experiments:
[1] = system: M. smegmatis within RAW 264.7 macrophages; assay: Therapeutic potential in M. smegmatis-infected RAW 264.7 cells (CFU); assay type: cell-based, Mycobacterium smegmatis; conditions: 15, 7.5 and 3.25 µM, 24 h
Method: For the first in vitro infection test with M. smegmatis, RAW 264.7 were seeded in 96-well culture plates at a density of 1 × 10^4 cells/well in DMEM medium (with 10% FBS, without antibiotics) and incubated overnight at 37 °C with 5% CO2 [20]. Infection of RAW 264.7 cells with M. smegmatis mc^2155 was performed at a multiplicity of infection of 1:1 for 2 h at 37 °C with 5% CO2. The medium with non-internalized bacteria was removed, and infected cells were then treated with the tested substances in DMEM: CP (15 µM, 7.5 µM and 3.25 µM), CA (30 µM, 15 µM, 7.5 µM and 3.25 µM), DE (15 µM, 7.5 µM and 3.25 µM), and DP (15 µM, 7.5 µM and 3.25 µM). Macrophages were lysed after 24 h with 0.1% Triton–X100, and these suspensions were diluted and plated on LB. CFU was determined after incubation of plates for 3 days at 37 °C. CFU numbers were expressed as log (CFU/well).

RAW 264.7 cells = assay: Direct effects on RAW 264.7 cell viability (MTT); assay type: cell-based, murine
Method: The direct effects of CP and its analogues on RAW 264.7 viability were evaluated using the MTT method. RAW 264.7 cells were seeded at 1 × 10^4 cells/well (for 24 h incubation) and 5 × 10^3 cells/well (for 48 h incubation) and incubated overnight to allow adhesion. The culture medium was carefully aspirated and replaced with 100 μL DMEM plus 100 μL of test compound solutions, yielding final concentrations ranging from 3.25 to 30 µM (DMSO 1%, v/v). After 24 or 48 h of exposure to test compounds, cells were incubated with MTT (0.5 mg/mL) for 3 h. The resulting formazan crystals were dried, dissolved in DMSO, and absorbance was measured at 570 nm using a microplate reader (EL800, BioTek, Winooski, VT, USA). The precipitated purple formazan crystals were directly proportional to the number of metabolically active viable cells. The cell viability was then calculated as: Cell viability (%) = (Sample absorbance/Control absorbance) × 100. Data were expressed as mean of cell viability ± standard error of the mean from three to four independent experiments performed in triplicate.

[2] = system: Mycobacterium smegmatis mc2155; assay: M. smegmatis susceptibility by CFU enumeration; assay type: cell-based
M. tuberculosis H37Ra = assay: M. tuberculosis susceptibility by CFU enumeration; assay type: cell-based, Mycobacterium tuberculosis; conditions: 0.03 μM, 48 h of treatment, positive control
Method: Next, CP, CA, and DE were diluted in Middlebrook 7H9 plus 10% OADC for the cellular susceptibility assay with M. tuberculosis H37Ra to yield concentrations up to 15 µM, 30 µM, and 15 µM, respectively. RIF at 0.03 µM was used as a positive control. The final DMSO concentration in all wells was 2.5%. The M. tuberculosis suspension was diluted in 7H9 plus 10% OADC to achieve an optical density of 0.006 at 595 nm, and 100 μL was then added to each well. Plates were covered, sealed with parafilm, and incubated at 37 °C for 48 h. After incubation, aliquots were removed, diluted, and plated in Middlebrook 7H10 agar plus 10% OADC. Plates were incubated at 37 °C for 4 weeks, and CFU were counted. CFU numbers were expressed as log10(CFU/mL).

CCCOC(=O)/C1=C/c2c([nH]c3ccccc23)/C(C(=O)OCCC)=C\c2c1[nH]c1ccccc21 [DP, (6E,13E)-dipropyl 5,12-dihydrocycloocta[1,2-b:5,6-b′]diindole-6,13-dicarboxylate]
effect on intracellular M. smegmatis growth in RAW 264.7 [1]: no inhibitory effect
effect on RAW 264.7 cell viability (RAW 264.7 cells; 24 h incubation, 3.25 to 30 µM): did not affect viability at any of the concentrations tested
effect on RAW 264.7 cell viability (RAW 264.7 cells; 48 h incubation): did not affect cell viability at any concentration evaluated
reduction of M. smegmatis viability ([2]; 30 μM, 24 h incubation): 0.639 log10 CFU

CCCCCOC(=O)/C1=C/c2c([nH]c3ccccc23)/C(C(=O)OCCCCC)=C\c2c1[nH]c1ccccc21 [diamyl, (6E,13E)-dipentyl 5,12-dihydrocycloocta[1,2-b:5,6-b′]diindole-6,13-dicarboxylate]
effect on RAW 264.7 cell viability (RAW 264.7 cells; 24 h incubation, 3.25 to 30 µM): affected cell viability at all concentrations assessed

CO[C@H]1/C=C/O[C@@]2(C)Oc3c(C)c(O)c4c(O)c(c(/C=N/N5CCN(C)CC5)c(O)c4c3C2=O)NC(=O)/C(C)=C\C=C\[C@H](C)[C@H](O)[C@@H](C)[C@@H](O)[C@@H](C)[C@H](OC(C)=O)[C@@H]1C [RIF, Rifampicin, reference compound]
reduction of M. smegmatis CFU count ([2]; 31 μM, 24 h of incubation, positive control): 3.41 log10
reduction of M. tuberculosis bacterial burden (M. tuberculosis H37Ra): 0.362 log10 CFU/mL

CC(C)COC(=O)/C1=C/c2c([nH]c3ccccc23)/C(C(=O)OCC(C)C)=C\c2c1[nH]c1ccccc21 [Diisobutyl, (6E,13E)-diisobutyl 5,12-dihydrocycloocta[1,2-b:5,6-b′]diindole-6,13-dicarboxylate]
effect on RAW 264.7 cell viability (RAW 264.7 cells; 24 h incubation, 3.25 to 30 µM): affected cell viability at the three highest concentrations assessed

Reference: PMC11944515, “Host-Mediated Antimicrobial Effects and NLRP3 Inflammasome Modulation by Caulerpin and Its Derivatives in Macrophage Models of Mycobacterial Infections” (Microorganisms, 2025)
